Test results reported in US20150337010A1, “Method for treating or preventing liver related diseases” (Tunghai University, priority 2014, published 2015).

How the values were obtained:
Assay type in all cases: in vivo, C57BL/6 male mice
[1] = LDL-cholesterol and triglyceride in blood plasma of high-fat diet fed mice; settings: high-fat diet mice, 5, 15 or 25 mg/kg/day intra-peritoneal (groups 3~5), compared with group 2 (high-fat diet, saline)
Experimental: (§1) The experiments using the experimental mice were conducted according to the IACUC-100-12 protocol approved by Academia Sinica Institutional Animal Care and Utilization Committee (IACUC) ethics committee. All C57BL/6 male mice (6-weeks-old) were randomly divided into 5 groups that contain 8 mice in each. These mice were individually housed in a room temperature at 24±2° C. and 55±10% humidity with 12 hours of light cycle. Herein, the control mice in the group 1 were fed with standard laboratory diet and administrated 0.9% normal saline by intra-peritoneal injection. In the group 2, the mice were fed with high-fat diet to induce the fatty liver, and administrated 0.9% normal saline by intra-peritoneal injection. In the group 3, the mice were fed with high-fat diet and administrated with peptide of SEQ ID No.1 by intra-peritoneal injected with the dose of 5 mg/kg/day. In the group 4, the mice were fed with high-fat diet and administrated with peptide of SEQ ID No.1 by intra-peritoneal injected with the dose of 15 mg/kg/day. […]
The blood samples collected from the mice in each group indicated in example 1 into the microcentrifuge tubes containing heparin (10 μL, 1000 IU/ml). […] The concentration of low density lipoprotein-cholesterol (hereafter referred to as LDL) and triglyceride in the isolated blood plasma from the mice in the each group were determined by using the commercial detection kit.

mouse liver = assay: Histopathological examination (H&E) of mouse liver, high-fat diet fed mice; settings: high-fat diet mice, 5, 15 or 25 mg/kg/day intra-peritoneal (groups 3~5)
Experimental: The experiments using the experimental mice were conducted according to the IACUC-100-12 protocol approved by Academia Sinica Institutional Animal Care and Utilization Committee (IACUC) ethics committee. All C57BL/6 male mice (6-weeks-old) were randomly divided into 5 groups that contain 8 mice in each. These mice were individually housed in a room temperature at 24±2° C. and 55±10% humidity with 12 hours of light cycle. Herein, the control mice in the group 1 were fed with standard laboratory diet and administrated 0.9% normal saline by intra-peritoneal injection. In the group 2, the mice were fed with high-fat diet to induce the fatty liver, and administrated 0.9% normal saline by intra-peritoneal injection. In the group 3, the mice were fed with high-fat diet and administrated with peptide of SEQ ID No.1 by intra-peritoneal injected with the dose of 5 mg/kg/day. In the group 4, the mice were fed with high-fat diet and administrated with peptide of SEQ ID No.1 by intra-peritoneal injected with the dose of 15 mg/kg/day. In the group 5, the mice were fed with high-fat diet and administrated with peptide of SEQ ID No.1 by intra-peritoneal injected with the dose of 25 mg/kg/day. The inter-peritoneal injections were performed on these mice between third to sixth weeks of culture.
The livers were excised from the mice of the each group; soaked in formalin; dehydrated by passing consecutively through […] and then embedded in paraffin wax. The each embedded liver tissue block was cut into […] sections and deparaffinization by soaking in xylene. The histological section of the mouse liver in the each group was consecutively stained by hematoxylin and eosin (H&E) and rinsed with water. The photomicrographs of the histological section of the mouse liver in the each group obtained using Zeiss Axiophot microscope (Thornwood Co, USA.) were shown in FIG. 3 and FIG. 4.

TNFα = assay: Western blotting of liver protein extract: TNFα; settings: high-fat diet mice, groups 3~5 (5, 15, 25 mg/kg/day i.p.), normalized with tubulin, compared to group 2
Experimental: as §1, with “injection.” for “injection. In the group 3, the mice were fed with high-fat diet and administrated with peptide of SEQ ID No.1 by intra-peritoneal injected with the dose of 5 mg/kg/day. In the group 4, the mice were fed with high-fat diet and administrated with peptide of SEQ ID No.1 by intra-peritoneal injected with the dose of 15 mg/kg/day.”
(§2) Protein concentration of extract was determined by Lowry's protein assay method, first. […]
(§3) According to the methods in example 4 and 5, preparing the protein extract of mouse liver in the each group and then the expression pattern of TNFα and IL-6 in mouse liver of the each group was determined by western blotting. The results were shown in FIG. 5 and FIG. 6, wherein the expression of tubulin was utilized as internal control in FIG. 5 and FIG. 6 and the relative amount of TNFα and IL-6 in mouse liver of the each group were separately quantified and normalization with the internal control.

IL-6 = assay: Western blotting of liver protein extract: IL-6; settings: high-fat diet mice, groups 3~5 (5, 15, 25 mg/kg/day i.p.), normalized with tubulin, compared to group 2
Experimental: as §1, with “injection.” for “injection. In the group 3, the mice were fed with high-fat diet and administrated with peptide of SEQ ID No.1 by intra-peritoneal injected with the dose of 5 mg/kg/day. In the group 4, the mice were fed with high-fat diet and administrated with peptide of SEQ ID No.1 by intra-peritoneal injected with the dose of 15 mg/kg/day.”
as §2, §3

Bcl-2 = assay: Western blotting of liver protein extract: Bcl-2; settings: high-fat diet mice, groups 3~5 (5, 15, 25 mg/kg/day i.p.), normalized with tubulin, compared with group 2
Experimental: (§4) The experiments using the experimental mice were conducted according to the IACUC-100-12 protocol approved by Academia Sinica Institutional Animal Care and Utilization Committee (IACUC) ethics committee. All C57BL/6 male mice (6-weeks-old) were randomly divided into 5 groups that contain 8 mice in each. These mice were individually housed in a room temperature at 24±2° C. and 55±10% humidity with 12 hours of light cycle. Herein, the control mice in the group 1 were fed with standard laboratory diet and administrated 0.9% normal saline by intra-peritoneal injection. […]
as §2
(§5) The protein extract of the mouse liver of the each group was prepared in example 4 and then to determine the expressions of apoptosis and survive related proteins using western blotting of example 5. The expression pattern of the apoptosis and survive related proteins were shown in FIG. 7 to FIG. 12, wherein the expression of tubulin was utilized as the internal control in western blot analysis in FIG. 7, FIG. 9 and FIG. 11, and the relative expression levels of the apoptosis and survive related proteins in mouse liver were normalized with tubulin for quantification in FIG. 8, FIG. 10 and FIG. 12. […]

Bax = assay: Western blotting of liver protein extract: Bax; settings: high-fat diet mice, groups 3~5 (5, 15, 25 mg/kg/day i.p.), normalized with tubulin, compared with group 2
Experimental: as §4, §2, §5

Caspase-9 = assay: Western blotting of liver protein extract: Caspase-9; settings: high-fat diet mice, groups 3~5 (5, 15, 25 mg/kg/day i.p.), normalized with tubulin, compared with group 2
Experimental: as §4, §2, §5

Caspase-3 = assay: Western blotting of liver protein extract: Caspase-3; settings: high-fat diet mice, groups 3~5 (5, 15, 25 mg/kg/day i.p.), normalized with tubulin, compared with group 2
Experimental: as §4, §2, §5

Caspase-8 = assay: Western blotting of liver protein extract: Caspase-8; settings: high-fat diet mice, groups 3~5 (5, 15, 25 mg/kg/day i.p.), normalized with tubulin, compared with group 2
Experimental: as §4, §2, §5

cytochrome c = assay: Western blotting of liver protein extract: cytochrome c; settings: high-fat diet mice, groups 3~5 (5, 15, 25 mg/kg/day i.p.), normalized with tubulin, compared with group 2
Experimental: as §4, §2, §5

IGFIR = assay: Western blotting of liver protein extract: IGFIR; settings: high-fat diet mice, groups 3~5 (5, 15, 25 mg/kg/day i.p.), normalized with tubulin, compared with group 2
Experimental: as §4, §2, §5

PI3K = assay: Western blotting of liver protein extract: PI3K; settings: high-fat diet mice, groups 3~5 (5, 15, 25 mg/kg/day i.p.), normalized with tubulin, compared with group 2
Experimental: as §4, §2, §5

AKT = assay: Western blotting of liver protein extract: AKT; settings: high-fat diet mice, groups 3~5 (5, 15, 25 mg/kg/day i.p.), normalized with tubulin, compared with group 2
Experimental: as §4, §2, §5

[2] = system: matrix metalloproteinase-9; assay: Western blotting of liver protein extract: MMP-9 (hepatic fibrosis biomarker); settings: high-fat diet mice, groups 3~5 (5, 15, 25 mg/kg/day i.p.), normalized with tubulin, compared with group 2
Experimental: as §4, with “injection. In the group 2, the mice were fed with high-fat diet to induce the fatty liver, and administrated 0.9% normal saline by intra-peritoneal injection.” for “injection.”
as §2
According to method in example 5, protein extract of mouse liver in the each group prepared in example 4 was subjected to determine the expression pattern and relative level of matrix metalloproteinase-9 (hereafter referred to as MMP 9). The results were shown in FIG. 13 and FIG. 14, wherein in FIG. 13, the expression of tubulin was utilized as the internal control in the western blotting and in FIG. 14, the quantified expression level of MMP-9 in the mouse liver of the each group was calculated with normalized with quantified expression level of tubulin.

PPARα = assay: Western blotting of liver protein extract: PPARα; settings: high-fat diet mice, groups 3~5 (5, 15, 25 mg/kg/day i.p.), normalized with tubulin, compared with group 2
Experimental: as §4, with “injection. In the group 2, the mice were fed with high-fat diet to induce the fatty liver, and administrated 0.9% normal saline by intra-peritoneal injection.” for “injection.”
as §2
According to method in example 5, protein extract of mouse liver in each group prepared in example 4 was subjected to determine the expression pattern and relative level of PPARα. The results were shown in FIG. 15 and FIG. 16, wherein the expression of tubulin was utilized as the internal control in FIG. 15 and the quantified expression level of PPARα in the mouse livers of the each group was calculated with normalized with quantified expression level of tubulin in FIG. 16.

Question: For “peptide of SEQ ID No.1: isolated peptide containing an amino acid sequence of SEQ ID No.1; obtainable by extraction, hydrolyzation or chemical synthesis (VHVV)”, which “concentration of LDL in blood plasma” value [1] is on record?
Answer: obviously decreased

Question: What about the “concentration of triglyceride in blood plasma” value [1] of the same substance?
Answer: obviously decreased

Question: And the “fat accumulation in the mouse liver (H&E)” value (mouse liver; compared with group 2)?
Answer: obviously decreased

Question: And the “giant oil drops in the mouse liver (H&E)” value (mouse liver; group 2 filled with giant oil drops)?
Answer: never was observed the giant oil drop

Question: And the “arrangement of hepatocytes in the mouse liver (H&E)” value (mouse liver; group 2 loosely arranged)?
Answer: tightly arranged hepatocytes

Question: And the “expression level of TNFα in mouse liver” value (TNFα)?
Answer: obviously reduced

Question: What about the “expression level of IL-6 in mouse liver” value (IL-6) of the same substance?
Answer: obviously reduced

Question: And the “expression level of Bcl-2 in mouse liver” value (Bcl-2)?
Answer: elevated

Question: And the “expression level of Bax (pro-apoptotic factor) in mouse liver” value (Bax)?
Answer: obviously suppressed

Question: And the “expression level of Caspase-9 (pro-apoptotic factor) in mouse liver” value (Caspase-9)?
Answer: obviously suppressed

Question: And the “expression level of Caspase-3 (pro-apoptotic factor) in mouse liver” value (Caspase-3)?
Answer: obviously suppressed

Question: What about the “expression level of Caspase-8 (pro-apoptotic factor) in mouse liver” value (Caspase-8) of the same substance?
Answer: obviously suppressed

Question: What about the “expression level of cytochrome c (pro-apoptotic factor) in mouse liver” value (cytochrome c) of the same substance?
Answer: obviously suppressed

Question: What about the “expression level of survival related protein IGFIR (pIGF-IR) in mouse liver” value (IGFIR) of the same substance?
Answer: obviously higher

Question: And the “expression level of survival related protein PI3K in mouse liver” value (PI3K)?
Answer: obviously higher

Question: And the “expression level of survival related protein AKT (pAKT) in mouse liver” value (AKT)?
Answer: obviously higher

Question: What about the “expression level of MMP-9 in mouse liver” value [2] of the same substance?
Answer: obviously suppressed

Question: And the “expression level of PPARα in mouse liver” value (PPARα)?
Answer: obviously increased
